Experimental findings from patent US20200071316A1, “ACTIVATORS OF THE RETINOIC ACID INDUCIBLE GENE "RIG-I" PATHWAY AND METHODS OF USE THEREOF” (Kineta Immuno-Oncology LLC, priority 2018, published 2020) are described below.

The test system of assay [1] is IRF3 signaling pathway (IRF-inducible ISG54 promotor) in THP1-Lucia ISG cells. Nature of the assay: THP1-Lucia ISG reporter assay: induction of IRF3-dependent luciferase activity. Type of assay: cell-based. To be noted: Homo sapiens, PMA-differentiated cells, 18 h after stimulation, read-out: THP1 ISG: fold increase of IRF3-dependent luciferase activity over background; for fold induction at 10 µM: 10 μM compound; for fold induction at 20 µM: 20 μM compound (*). The method, boiled down:
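PMA-differentiated (100 ng/ml) reporter cells, parental and IRF3−/−, stimulated with compounds at 5–20 μM (mostly 10 μM). Secreted luciferase measured 18 h later. Scored as fold increase over untreated background in bands from "−" (<2.4-fold) to "+++++" (≥40-fold).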

Assay [2] concerns THP1-Lucia ISG IRF3 −/− cells. The assay is described as follows: IRF3-deficient THP1-Lucia ISG IRF3 −/− reporter assay (counter-screen). Type of assay: cell-based. To be noted: Homo sapiens, 18 h after stimulation, read-out: THP1 ISG IRF3 −/−: fold increase of luciferase activity over background; for fold induction at 10 µM: 10 μM compound; for fold induction at 20 µM: 20 μM compound (*). The method, boiled down:
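PMA-differentiated (100 ng/ml) reporter cells carrying ISRE/ISG54 minimal promoter-driven secreted luciferase were stimulated with compounds at 5–20 μM (mostly 10 μM). Luciferase measured 18 h later and expressed as fold increase over untreated background, binned from "−" (<2.4-fold) to "+++++" (≥40-fold).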

For assay [3], the system named is CXCL10 secretion by CT26 cells. Nature of the assay: RIG-I dependent CXCL10 secretion by CT26 colon carcinoma cells (ELISA). The format is cell-based, murine. To be noted: 24 h. The method, boiled down: (§1)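 Murine CT26 colon carcinoma cells, and CRISPR-generated RIG-I knockout CT26 cells, were seeded at 1×10^4 cells/well and grown 24 h at 37 °C, 5% CO2, then treated with compounds at 5 to 20 μM. CXCL10 in supernatants was measured by ELISA 24 h after stimulation.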

In assay [4] the test system is RIG-I deficient CT26 RIG-1−/− cells. The assay is described as follows: CXCL10 secretion in RIG-I deficient CT26 RIG-1−/− cells (ELISA). Conditions: 24 h. The format is cell-based, murine. The essentials: as §1

Marks after values point to notes of the source that are not given here.

For the compound `O=C(Nc1nc2ccc(S(=O)(=O)N3CCC3)cc2s1)c1cc2ccccc2cc1OCCN1CCOCC1` [Example 35, N-[6-(azetidine-1-sulfonyl)-1,3-benzothiazol-2-yl]-3-[2-(morpholin-4-yl)ethoxy]naphthalene-2-carboxamide], the values for the fold induction at 10 µM in assay [1] and in assay [2] were 20 to 39 and less than 2.4, respectively. The “CXCL10 secretion by CT26 cells” value in assay [3] (10 μM compound) is “+ (“+” indicates 100-199 pg/mL)”. For the same compound, the “CXCL10 secretion by CT26 RIG-I −/− cells” value in assay [4] (10 μM compound) was “− (“−” indicates less than 100 pg/mL)”.
As to `O=C(Nc1nc2ccc(S(=O)(=O)N3CCC3)cc2s1)c1cc2ccccc2cc1OCCCCN1CCOCC1` [Example 36, N-[6-(azetidine-1-sulfonyl)-1,3-benzothiazol-2-yl]-3-[4-(morpholin-4-yl)butoxy]naphthalene-2-carboxamide], the fold induction at 10 µM in assay [1] was 10 to 19; in assay [2], less than 2.4. For the same compound, in assay [3] (10 μM compound), the “CXCL10 secretion by CT26 cells” value was “+++ (“+++” indicates 400-799 pg/mL)”. The “CXCL10 secretion by CT26 RIG-I −/− cells” value in assay [4] (10 μM compound) is recorded as “− (“−” indicates less than 100 pg/mL)”.
Regarding `O=C(Nc1nc2ccc(S(=O)(=O)N3CCCCC3)cc2s1)c1cc2ccccc2cc1OCCN1CCOCC1` [Example 37, 3-[2-(morpholin-4-yl)ethoxy]-N-[6-(piperidine-1-sulfonyl)-1,3-benzothiazol-2-yl]naphthalene-2-carboxamide], the fold induction at 10 µM is 10 to 19 in assay [1] and less than 2.4 in assay [2]. Further, the “CXCL10 secretion by CT26 cells” value in assay [3] (10 μM compound) is given as “+++ (“+++” indicates 400-799 pg/mL)”. The “CXCL10 secretion by CT26 RIG-I −/− cells” value in assay [4] (10 μM compound) is “− (“−” indicates less than 100 pg/mL)”.
In the same order, the values of `O=C(Nc1nc2ccc(S(=O)(=O)N3CCCCC3)cc2s1)c1cc2ccccc2cc1OCCCCN1CCOCC1` [Example 38, 3-[4-(morpholin-4-yl)butoxy]-N-[6-(piperidine-1-sulfonyl)-1,3-benzothiazol-2-yl]naphthalene-2-carboxamide] are 10 to 19, less than 2.4, “+++ (“+++” indicates 400-799 pg/mL)” and “− (“−” indicates less than 100 pg/mL)”.
Turning to `O=C(Nc1nc2ccc(S(=O)(=O)N3CCCC3)cc2s1)c1cc2ccsc2cc1OCCN1CCOCC1` [Example 39, 6-[2-(morpholin-4-yl)ethoxy]-N-[6-(pyrrolidine-1-sulfonyl)-1,3-benzothiazol-2-yl]-1-benzothiophene-5-carboxamide], the fold induction at 10 µM in assay [1] was 20 to 39; in assay [2], less than 2.4. In assay [3] (10 μM compound), the “CXCL10 secretion by CT26 cells” value is reported as “++ (“++” indicates 200-399 pg/mL)”. Moreover, the “CXCL10 secretion by CT26 RIG-I −/− cells” value in assay [4] (10 μM compound) is recorded as “− (“−” indicates less than 100 pg/mL)”.
Consider `O=C(Nc1nc2ccc(S(=O)(=O)N3CCCC3)cc2s1)c1cc2c(cc1OCCN1CCOCC1)OCO2` [Example 40, 6-[2-(morpholin-4-yl)ethoxy]-N-[6-(pyrrolidine-1-sulfonyl)-1,3-benzothiazol-2-yl]-2H-1,3-benzodioxole-5-carboxamide], for which the fold induction at 20 µM is 2.4 to 4.9 in assay [1] and less than 2.4 in assay [2]. Also, the “CXCL10 secretion by CT26 cells” value in assay [3] (5 μM compound (**)) is “++** (“++” indicates 200-399 pg/mL)”. Besides, the “CXCL10 secretion by CT26 RIG-I −/− cells” value in assay [4] (5 μM compound (**)) is “−** (“−” indicates less than 100 pg/mL)”.
On to `O=C(Nc1nc2ccc(S(=O)(=O)N3CCCC3)cc2s1)c1ccc(-c2ccccc2)cc1OCCCCN1CCOCC1` [Example 41, 3-[4-(morpholin-4-yl)butoxy]-N-[6-(pyrrolidine-1-sulfonyl)-1,3-benzothiazol-2-yl]-[1,1′-biphenyl]-4-carboxamide], for which the fold induction at 10 µM is 20 to 39 in assay [1] and less than 2.4 in assay [2]. The “CXCL10 secretion by CT26 cells” value in assay [3] (10 μM compound) is recorded as “+++++ (“+++++” indicates greater than or equal to 1600 pg/ml)”. In addition, the “CXCL10 secretion by CT26 RIG-I −/− cells” value in assay [4] (10 μM compound) is listed as “− (“−” indicates less than 100 pg/mL)”.
For `O=C(Nc1nc2ccc(S(=O)(=O)N3CCCC3)cc2s1)c1cc2ccsc2cc1OCCCCN1CCOCC1` [Example 42, 6-[4-(morpholin-4-yl)butoxy]-N-[6-(pyrrolidine-1-sulfonyl)-1,3-benzothiazol-2-yl]-1-benzothiophene-5-carboxamide], the values for the fold induction at 10 µM in assay [1] and in assay [2] were 5 to 9.9 and less than 2.4, respectively. Besides, the “CXCL10 secretion by CT26 cells” value in assay [3] (10 μM compound) is “++++ (“++++” indicates 800 to 1599 pg/mL)”. Further, in assay [4] (10 μM compound), the “CXCL10 secretion by CT26 RIG-I −/− cells” value is “− (“−” indicates less than 100 pg/mL)”.
Turning to `O=C(Nc1nc2ccc(S(=O)(=O)N3CCCC3)cc2s1)c1cc2c(cc1OCCCCN1CCOCC1)OCO2` [Example 43, 6-[4-(morpholin-4-yl)butoxy]-N-[6-(pyrrolidine-1-sulfonyl)-1,3-benzothiazol-2-yl]-2H-1,3-benzodioxole-5-carboxamide], the fold induction at 10 µM was 5 to 9.9 in assay [1] and less than 2.4 in assay [2]. In assay [3] (10 μM compound), the “CXCL10 secretion by CT26 cells” value was “++++ (“++++” indicates 800 to 1599 pg/mL)”. Further, the “CXCL10 secretion by CT26 RIG-I −/− cells” value in assay [4] (10 μM compound) is “− (“−” indicates less than 100 pg/mL)”.
On to `CS(=O)(=O)c1ccc2nc(NC(=O)c3cc4ccccc4cc3OCCN3CCOCC3)sc2c1` [Example 44, N-(6-methanesulfonyl-1,3-benzothiazol-2-yl)-3-[2-(morpholin-4-yl)ethoxy]naphthalene-2-carboxamide], for which the fold induction at 10 µM in assay [1] and in assay [2] was less than 2.4 in each case. The “CXCL10 secretion by CT26 cells” value in assay [3] (5 μM compound (**)) is recorded as “++** (“++” indicates 200-399 pg/mL)”. For the same compound, the “CXCL10 secretion by CT26 RIG-I −/− cells” value in assay [4] (5 μM compound (**)) is “−** (“−” indicates less than 100 pg/mL)”.
On to `CS(=O)(=O)c1ccc2nc(NC(=O)c3cc4ccccc4cc3OCCCCN3CCOCC3)sc2c1` [Example 45, N-(6-methanesulfonyl-1,3-benzothiazol-2-yl)-3-[4-(morpholin-4-yl)butoxy]naphthalene-2-carboxamide], for which the fold induction at 10 µM in assay [1] was 5 to 9.9; in assay [2] it was less than 2.4. Moreover, the “CXCL10 secretion by CT26 cells” value in assay [3] (10 μM compound) was “++++ (“++++” indicates 800 to 1599 pg/mL)”. For the same compound, the “CXCL10 secretion by CT26 RIG-I −/− cells” value in assay [4] (10 μM compound) was “− (“−” indicates less than 100 pg/mL)”.
As to `O=C(Nc1nc2ccc(S(=O)(=O)N3CCC3)cc2s1)c1ccc2ccccc2c1` [Example 46, N-[6-(azetidine-1-sulfonyl)-1,3-benzothiazol-2-yl]naphthalene-2-carboxamide], the figures for the fold induction at 20 µM in assay [1] and in assay [2] were 10 to 19 and less than 2.4, respectively. Also, in assay [3] (10 μM compound), the “CXCL10 secretion by CT26 cells” value is reported as “++ (“++” indicates 200-399 pg/mL)”. For the same compound, in assay [4] (10 μM compound), the “CXCL10 secretion by CT26 RIG-I −/− cells” value is “− (“−” indicates less than 100 pg/mL)”.
As for `O=C(Nc1nc2ccc(S(=O)(=O)N3CCCC3)cc2s1)c1ccc(-c2ccccc2)cc1OCCN1CCOCC1` [Example 47, 3-[2-(morpholin-4-yl)ethoxy]-N-[6-(pyrrolidine-1-sulfonyl)-1,3-benzothiazol-2-yl]-[1,1′-biphenyl]-4-carboxamide], the figures for the fold induction at 10 µM in assay [1] and in assay [2] were not below 40 and less than 2.4, respectively. For the same compound, the “CXCL10 secretion by CT26 cells” value in assay [3] (10 μM compound) is “+++ (“+++” indicates 400-799 pg/mL)”. Also, the “CXCL10 secretion by CT26 RIG-I −/− cells” value in assay [4] (10 μM compound) was “− (“−” indicates less than 100 pg/mL)”.
As to `O=C(Nc1nc2ccc(SC(F)F)cc2s1)c1cc2ccccc2cc1OCCN1CCOCC1` [Example 48, N-{6-[(difluoromethyl)sulfanyl]-1,3-benzothiazol-2-yl}-3-[2-(morpholin-4-yl)ethoxy]naphthalene-2-carboxamide], the fold induction at 20 µM in assay [1] was 2.4 to 4.9; in assay [2], less than 2.4. Further, in assay [3] (10 μM compound), the “CXCL10 secretion by CT26 cells” value is “++ (“++” indicates 200-399 pg/mL)”. Also, the “CXCL10 secretion by CT26 RIG-I −/− cells” value in assay [4] (10 μM compound) is “− (“−” indicates less than 100 pg/mL)”.
On to `O=C(Nc1nc2ccc(SC(F)F)cc2s1)c1cc2ccccc2cc1OCCCCN1CCOCC1` [Example 49, N-{6-[(difluoromethyl)sulfanyl]-1,3-benzothiazol-2-yl}-3-[4-(morpholin-4-yl)butoxy]naphthalene-2-carboxamide], for which the figures for the fold induction at 10 µM in assay [1] and in assay [2] were 20 to 39 and less than 2.4, respectively. Also, in assay [3] (10 μM compound), the “CXCL10 secretion by CT26 cells” value was “+++ (“+++” indicates 400-799 pg/mL)”. In addition, in assay [4] (10 μM compound), the “CXCL10 secretion by CT26 RIG-I −/− cells” value was “− (“−” indicates less than 100 pg/mL)”.
In the case of `O=C(Nc1nc2ccc(S(=O)(=O)N3CCC3)cc2s1)c1ccc(-c2ccccc2)cc1` [Example 50, N-[6-(azetidine-1-sulfonyl)-1,3-benzothiazol-2-yl]-[1,1′-biphenyl]-4-carboxamide], the fold induction at 10 µM in assay [1] was 5 to 9.9; in assay [2], less than 2.4. The “CXCL10 secretion by CT26 cells” value in assay [3] (10 μM compound) is “+++++ (“+++++” indicates greater than or equal to 1600 pg/ml)”. Moreover, in assay [4] (10 μM compound), the “CXCL10 secretion by CT26 RIG-I −/− cells” value is listed as “− (“−” indicates less than 100 pg/mL)”.
Turning to `Cn1c(C(=O)Nc2nc3ccc(S(=O)(=O)N4CCC4)cc3s2)cc2ccccc21` [Example 51, N-[6-(azetidine-1-sulfonyl)-1,3-benzothiazol-2-yl]-1-methyl-1H-indole-2-carboxamide], the fold induction at 10 µM is 2.4 to 4.9 in assay [1] and less than 2.4 in assay [2]. The “CXCL10 secretion by CT26 cells” value in assay [3] (10 μM compound) is listed as “+ (“+” indicates 100-199 pg/mL)”. For the same compound, the “CXCL10 secretion by CT26 RIG-I −/− cells” value in assay [4] (10 μM compound) is “− (“−” indicates less than 100 pg/mL)”.
